Measured values taken from US20250361284A1, “TRANSPOSASE FUSION PROTEINS FOR USE IN CELL AND GENE THERAPY” (JULIUS-MAXIMILIANS-UNIVERSITÄT WÜRZBURG, priority 2022, published 2025).

What was measured:
human CD4+ T cells = assay: Gene transfer (EGFRt+ T cells, flow cytometry) with degron-SB100X in CD4+ T cells; format: cell-based; settings: for gene transfer rate (EGFRt+ T cells): day 7 post-nucleofection, n=1
Method: (1E) Testing the activity of IKZF3 zinc finger-based degron-SB100X fusion-transposase in human CD4+ T cells. For each condition, 2 million CD3/CD28 activated CD4+ T cells were nucleofected with minicircle DNA encoding a CD19-CAR_EGFRt SB transposon, and plasmid DNA encoding either the wild type SB transposase (SB100X) or the SB fusion-transposase (degron-SB100X). Cells were cultured either in the presence of Pomalidomide (P; 10 μM) or DMSO (D) at the time of nucleofection. At 7 days post-nucleofection, flow cytometric analysis was performed to determine the percentage of T cells that expresses the EGFRt reporter that was encoded in cis with the CD19-CAR. Top panel: Dot plots showing EGFRt expression on day 7 post-nucleofection. Bottom panel: Bar graph showing the percentage of EGFRt+ T cells on day 7 post-nucleofection (n=1).
Anonymous healthy donor blood samples were received upon written consent to participate in research protocols approved by the Institutional Review Board of the Universitätsklinikum Würzburg (UKW). Blood samples were processed for T cells isolation as published earlier (Querques et al., 2019). Briefly, Peripheral blood mononuclear cells (PBMCs) were isolated by density centrifugation with Biocoll separating solution (Biochrom). Both CD4+ and CD8+ T cells were sorted by negative isolation approach using microbeads and magnetic associated cell sorting (MACS, Miltenyi) methods as described by the manufacturer. The isolated CD4+ and CD8+ T cells were cultured in T cell medium (RPMI-1640 with 10% (vol/vol) human serum, 2 mM L-glutamine, 100 U ml-1 penicillin-streptomycin) containing IL-2 (50 units per mL) and activated by anti-CD3/CD28 bead stimulation (Thermo Fisher). Two days post-activation, approximately 2 million T cells were nucleofected with vectors (1 μg of CD19 CAR (EGFRt)-encoding transposon as plasmid or minicircle DNA; 1 μg of mRNA encoding SB transposase) or 10 μg of hsSB protein (Querques et al., 2019) using a 4D Nucleofector (Lonza) as per the manufacturer's instructions. […]

K562/CD19 target cells = assay: Bioluminescence-based cytolytic activity of CD8+ CD19 CAR T cells; format: cell-based, human; settings: TMP 1000 nM
Method: (5C) Specific cytolytic activity of CD8+ CD19 CAR-T cells against K562/CD19 target cells. Cytolytic activity of CD8+ CD19-CAR T cells was evaluated by co-culture with K562/CD19 or K562 target cells using a bioluminescence-based assay. The assay was setup with effector T cells (CD8+ CD19-CAR T cells) at various effector/target (E:T) ratios in 96 well flat bottom plates. Luminescence intensities were recorded at specific time points (1, 3, 5, 24 hours) using a luminometer. Specific lysis was calculated using the standard formula. Data shown are from one representative experiment.
(5D) Specific cytolytic activity of CD8+ CD19 CAR-T cells engineered with dd-SB100X fusion transposase vs. wild type SB100X transposase. […] Data was analyzed by unpaired t-test.
Anonymous healthy donor blood samples were received upon written consent to participate in research protocols approved by the Institutional Review Board of the Universitätsklinikum Würzburg (UKW). Blood samples were processed for T cells isolation as published earlier (Querques et al., 2019). Briefly, Peripheral blood mononuclear cells (PBMCs) were isolated by density centrifugation with Biocoll separating solution (Biochrom). Both CD4+ and CD8+ T cells were sorted by negative isolation approach using microbeads and magnetic associated cell sorting (MACS, Miltenyi) methods as described by the manufacturer. […]

**Q.** With `Nc1cccc2c1C(=O)N(C1CCC(=O)NC1=O)C2=O` (stereo not shown) [pomalidomide, reference compound] as the molecule, how does the “effect of pomalidomide on activity of wild type SB100X (lacking the degron tag)” value (human CD4+ T cells; pomalidomide 10 μM vs DMSO) read?
**A.** interfered with the activity of wild type SB100X

**Q.** Which “effect of TMP treatment on subsequent function of CAR T cells” value (K562/CD19 target cells) does the source give for `COc1cc(Cc2cnc(N)nc2N)cc(OC)c1OC` [TMP, trimethoprim] here?
**A.** no adverse effects

**Q.** How did the “gene transfer rate (EGFRt+ T cells)” value (human CD4+ T cells; DMSO) turn out when “degron-SB100X: IKZF3 zinc finger degron tag fused via linker to N-terminus of SB100X transposase; SEQ ID NO: 3” was run?
**A.** ~46.4%

**Q.** And the “gene transfer rate (EGFRt+ T cells)” value (human CD4+ T cells; pomalidomide 10 μM)?
**A.** ~1.74%
